For one test, the target named is CpomOrco (Cydia pomonella, UniProt H9A5M2). The experiment in a line: Calcium imaging of HEK293T cells expressing homomeric CpomOrco. Type of test: cell-based. The conditions noted are these: peak amplitudes normalized to response at 1000 μM agonist, read-out: [A]1/2 half-effective concentration of agonist, calcium response. Here is the method:
HEK293T cells were grown in HEK cell media [Dulbecco’s modified Eagle’s medium containing 10% fetal bovine serum (MP Biomedicals, Solon, OH, USA), 2.0 mM L-glutamine, and 100 μg/mL Penicillin/Streptomycin (Invitrogen)] at 37 °C and 5% CO2. To test transient expression of CpomORs for calcium imaging or patch-clamp recording experiments, 35-mm petri dishes containing semi-confluent HEK293T cells were transiently transfected. To transfect cells with CpomOrco, we used 1.0 μg of pcDNA5/TO/CpomOrco DNA. In order to promote expression of the OR[51], we used double aliquots for pcDNA5/TO/CpomOR DNAs (2.0 μg), combined with 1.0 μg of pcDNA5/TO/CpomOrco for co-transfections (CpomOrco + ORs). […]
Fluorescence imaging was performed using Imaging Workbench 6 software (INDEC BioSystems, Santa Clara, CA, USA). Each cell was assigned a region of interest (ROI) and changes in fluorescence intensity within each ROI were measured and expressed as the fractional change in fluorescence intensity (dF) or in some cases as dF/F0 where F0 is the basal fluorescence level before agonist application. […] Continuous traces of multiple responses were compensated for slow drift of the baseline fluorescence when necessary. […]

The test system of test [1] is Un-transfected cells (HEK293T). The experiment in a line: Whole-cell patch-clamp recording of un-transfected HEK293T cells. It counts as cell-based, human. The conditions noted are these: 12 cells tested. As to the method:
The OR channel activity was investigated using whole-cell and outside-out patch-clamp recordings. The currents were measured with a 200B patch-clamp amplifier (Molecular Devices) and a digital interface (Digidata 1320 A, Molecular Devices), low pass filtered at 5.0 kHz, sampled at 1-2 kHz. […] OR channel related currents were investigated at a holding potential of -50/+50 mV unless otherwise specified. The polarity of the currents/voltages was presented relative to intracellular membrane surface. Appropriate corrections for liquid junction potentials were made when necessary. Patch pipettes were fabricated from borosilicate capillary glass (BF150-86-10, Sutter Instrument, CA, USA) using a Flaming-Brown micropipette puller (P-87, Sutter Instrument). Only patches with initial cell-attached seal resistance estimated higher than 1.0 GOhms were used in the experiments. Intracellular (pipette) solution for whole-cell experiments was NaCl 140 mM, EGTA 0.5 mM, Hepes 10 mM, pH 7.4 (adjusted with Tris-base, standard Na^+ 140 mM), while bath solution was usually NaCl 140 mM, CaCl2 1.0 mM, MgCl2 0-1.0 mM, KCl 5.0 mM, Hepes 10 mM, pH 7.4 (adjusted with Tris-base or NaOH). The OR channel current noise was recorded using outside-out patches excised from HEK293T cells and evoked by stimulation with 250 μM VUAA3. […]
A general note: Patch clamp records ionic current or voltage across a cell membrane.

Chain of CpomOrco (H9A5M2 entry or part of it): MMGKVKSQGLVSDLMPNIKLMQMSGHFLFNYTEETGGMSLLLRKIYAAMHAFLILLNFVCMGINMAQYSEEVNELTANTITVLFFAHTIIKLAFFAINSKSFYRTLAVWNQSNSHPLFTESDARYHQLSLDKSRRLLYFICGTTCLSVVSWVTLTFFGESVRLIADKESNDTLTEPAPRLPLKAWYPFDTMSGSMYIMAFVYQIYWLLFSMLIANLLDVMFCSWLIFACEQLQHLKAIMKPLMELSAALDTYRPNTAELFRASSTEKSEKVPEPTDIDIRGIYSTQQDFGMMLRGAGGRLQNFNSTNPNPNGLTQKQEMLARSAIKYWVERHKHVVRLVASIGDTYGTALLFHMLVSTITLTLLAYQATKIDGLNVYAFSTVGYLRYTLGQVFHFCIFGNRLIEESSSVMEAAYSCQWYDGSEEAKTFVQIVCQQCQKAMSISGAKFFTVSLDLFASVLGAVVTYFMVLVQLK

Take `CCn1c(SCC(=O)Nc2ccc(C(C)C)cc2)nnc1-c1ccncc1` [VUAA3, acetamide,2-[[4-ethyl-5-(4-pyridinyl)-4H-1,2,4-triazol-3-yl]thio]-N-[4-(1-methylethyl)phenyl]-]: at CpomOrco, the EC50 is approximately 362 µM. Also, the “sensitivity of un-transfected cells” value in test [1] is “not sensitive”.

For the origin of these results see paper PMC5259778, “Candidate pheromone receptors of codling moth Cydia pomonella respond to pheromones and kairomones” (Scientific Reports, 2017).
